From patent publication US9017692B2, “Antimicrobial agent, bacterial strain, biosynthesis, and methods of use” (priority 2011, dated 2015)

Columns and labels:
Test in all cases: Spot-on-lawn antimicrobial activity
[1] = system: C. difficile CL148; format: cell-based, Clostridium difficile; settings: BHIYE
Protocol: (§1) Spot-on-lawn method [He, Z., et al., Appl. Environ. Microbiol., (2007) 73:168-178] was used for the bioassay of antimicrobial activity. Bacterial indicators were incubated at 37° C. for 24 h, except Pseudomonas putida, Clostridium difficile and methycillin resistant Staphylococcus aureus which were incubated for 48 h (Table 1). The indicator overlay was prepared by pouring 10 ml soft agar (seeded with 10 μL indicator culture) onto tryptose agar as basal medium in a petri dish. Purified antimicrobials were two-fold serially diluted and aliquots (10 μL each) were spotted onto the soft agar. The plates were incubated overnight and inspected for the presence of growth inhibition zones. Antimicrobial activity was expressed in arbitrary units (AU)/mL; this value is the reciprocal of the highest dilution displaying a zone of inhibition corresponding to 1 mL of the non-diluted antimicrobial preparation.
(§2) Purified paenibacterin was used for the antimicrobial spectrum test. Microorganisms tested for sensitivity to this compound included pathogenic (e.g., Salmonella Typhimurium, Escherichia coli O157:H7, Listeria monocytogenes, and Staphylococcus aureus) and non-pathogenic (e.g., Escherichia coli K-12, Pseudomonas putida, and Enterococcus faecalis) bacteria (Table 1).

[2] = system: Pseudomonas putida ATCC 45491; format: cell-based; settings: TSBYE
Protocol: as §1, §2

[3] = system: Clostridium difficile A515; format: cell-based; settings: BHIYE
Protocol: as §1, §2

[4] = system: Lactobacillus plantarum ATCC 8014; format: cell-based; settings: MRS
Protocol: as §1, §2

[5] = system: Enterococcus faecalis ATCC 29212; format: cell-based; settings: MRS
Protocol: as §1, §2

[6] = system: Staphylococcus aureus ATCC 6538; format: cell-based; settings: TSBYE
Protocol: as §1, §2

[7] = system: Yersinia enterocolitica; format: cell-based; settings: TSBYE
Protocol: as §1, §2

[8] = system: L. lactis ATCC 11454; format: cell-based; settings: MRS
Protocol: as §1, §2

[9] = system: Salmonella enterica ser. Typhimurium; format: cell-based; settings: TSBYE
Protocol: as §1, §2

[10] = system: Listeria monocytogenes Scott A; format: cell-based; settings: TSBYE
Protocol: as §1, §2

[11] = system: Bacillus cereus ATCC 14579; format: cell-based; settings: TSBYE
Protocol: as §1, §2

[12] = system: S. enterica ser. Enteritidis; format: cell-based, Salmonella enterica; settings: TSBYE
Protocol: as §1, §2

[13] = system: S. enterica ser. Typhimurium DT 109; format: cell-based, Salmonella enterica; settings: TSBYE
Protocol: as §1, §2

## paenibacterin
[1]
  Antimicrobial activity (AU/ml): 0 AU/ml
[1]; listed as Paenibacterin
  Antimicrobial activity (AU/ml): no activity
[2]
  Antimicrobial activity (AU/ml): 400 AU/ml
[3]
  Antimicrobial activity (AU/ml): 200 AU/ml
[4]
  Antimicrobial activity (AU/ml): 400 AU/ml
[5]
  Antimicrobial activity (AU/ml): 0 AU/ml
[5]; listed as Paenibacterin
  Antimicrobial activity (AU/ml): no activity
[6]
  Antimicrobial activity (AU/ml): 100 AU/ml
[7]
  Antimicrobial activity (AU/ml): 1600 AU/ml
[8]
  Antimicrobial activity (AU/ml): 800 AU/ml
[9]
  Antimicrobial activity (AU/ml): 400 AU/ml
[10]
  Antimicrobial activity (AU/ml): 800 AU/ml
[11]
  Antimicrobial activity (AU/ml): 800 AU/ml
[12]
  Antimicrobial activity (AU/ml): 800 AU/ml
[13]
  Antimicrobial activity (AU/ml): 400 AU/ml
